Reference: patent publication US20080269332A1, “EYELASH ENHANCEMENT COMPOSITION AND METHOD OF TREATMENT” (LA CANADA VENTRURES, INC., priority 2007, published 2008)

Test system: eyelash growth
Test: Randomized double blind clinical trial of eyelash growth, daily topical application to root of upper eyelashes for 4 weeks
Assay type: in vivo, human
Procedure: These solutions were each applied daily to the roots of the upper right and left eyelashes of the patients in a quantity of approximately 0.0164 ml. Patients applied the eyelash product daily for 4 weeks on the root of the upper eyelashes only since some of the solution used may ultimately be deposited on the lower lash interfering with the studies' parameters. Methods: 34 patients were randomly assigned to one of three different treatment groups based on a standard treatment of the upper right lash and different treatments of the upper left eye lash with varying concentrations of the active product and a placebo. Age range of the patients was 20-56; 33 female, 1 male. Three different treatment Groups were constructed based on RIGHT EYE lash treatment/LEFT EYE lash treatment and defined as Groups A/B, A/D and A/C). All patients used Solution A on the right eye lash which is the “Control Group”, with Solutions B, D, and C used on the left eye lash of these same patients. Group A/B (14 patients) used Solution A on the upper right lash and Solution B on the upper left lash. Group A/D (9 patients) used Solution A on the upper right lash and Solution D on the upper left lash. Group A/C (11 patients) used Solution A on the upper right lash and the placebo, Solution C, on the upper left lash. After four (4) weeks upper RIGHT eyelash measurement were made for all 34 randomized patients. The upper LEFT eyelash measurement were made for the 14 patients using Solution B, for the 9 patients using Solution D and the 11 patients using Solution C (the placebo). Eyelash measurements for both the upper right and left eyelashes were taken in the medial, middle and lateral locations on both upper and lower eyelids using micocalipers and measured to 0.1 mm. The mean of the six measurements were then used to calculate the eyelash length for each eye. Measurements were taken at the initiation of the study to use as standard base. The technicians performing the measurements were blinded to the patient group assignment. A paired two-tailed Student's t-Test was used for statistical analysis. All patients enrolled into the study underwent a standard informed consent procedure.

In the case of `CCNC(=O)CCC/C=C\C[C@@H]1[C@@H](/C=C/[C@@H](O)COc2ccccc2)[C@H](O)C[C@@H]1O` [active agent, (z)-7-((1R,2R,3R,5S)-3,5-dihydroxy-2-((R,E)-3-hydroxy-4-phenoxybut-1-enyl)cyclopentyl)-N-ethylhept-5-enamide], the “increase lash growth relative to placebo (growth with active / growth with placebo ×100)” value (4 weeks of daily use, placebo Solution C growth 0.63 mm) was 268.25%, the “patients subjectively reporting an increase in the thickness or fullness of their eyelashes” value (9/34 patients, 4 weeks of daily use) was 26% and the “patients reporting mild or minimal irritation” value (19/34 patients, typically resolved after several days of use) was 56%. The “patients reporting moderate irritation and discontinuing” value (34 patients, daily topical use) was “One patient reported moderate irritation and discontinued the product”.
